Assay results as given in PMC8766756, “Insights on Cancer Cell Inhibition, Subcellular Activities, and Kinase Profile of Phenylacetamides Pending 1H-Imidazol-5-One Variants” (Frontiers in Pharmacology, 2022).

Target: T1, EphA3 (P29320) (Homo sapiens, UniProt P29320)
T1 construct: purchased PamGene (PamChip PTK array, Upstream Kinase Analysis)
T1 sequence (P29320 21-983): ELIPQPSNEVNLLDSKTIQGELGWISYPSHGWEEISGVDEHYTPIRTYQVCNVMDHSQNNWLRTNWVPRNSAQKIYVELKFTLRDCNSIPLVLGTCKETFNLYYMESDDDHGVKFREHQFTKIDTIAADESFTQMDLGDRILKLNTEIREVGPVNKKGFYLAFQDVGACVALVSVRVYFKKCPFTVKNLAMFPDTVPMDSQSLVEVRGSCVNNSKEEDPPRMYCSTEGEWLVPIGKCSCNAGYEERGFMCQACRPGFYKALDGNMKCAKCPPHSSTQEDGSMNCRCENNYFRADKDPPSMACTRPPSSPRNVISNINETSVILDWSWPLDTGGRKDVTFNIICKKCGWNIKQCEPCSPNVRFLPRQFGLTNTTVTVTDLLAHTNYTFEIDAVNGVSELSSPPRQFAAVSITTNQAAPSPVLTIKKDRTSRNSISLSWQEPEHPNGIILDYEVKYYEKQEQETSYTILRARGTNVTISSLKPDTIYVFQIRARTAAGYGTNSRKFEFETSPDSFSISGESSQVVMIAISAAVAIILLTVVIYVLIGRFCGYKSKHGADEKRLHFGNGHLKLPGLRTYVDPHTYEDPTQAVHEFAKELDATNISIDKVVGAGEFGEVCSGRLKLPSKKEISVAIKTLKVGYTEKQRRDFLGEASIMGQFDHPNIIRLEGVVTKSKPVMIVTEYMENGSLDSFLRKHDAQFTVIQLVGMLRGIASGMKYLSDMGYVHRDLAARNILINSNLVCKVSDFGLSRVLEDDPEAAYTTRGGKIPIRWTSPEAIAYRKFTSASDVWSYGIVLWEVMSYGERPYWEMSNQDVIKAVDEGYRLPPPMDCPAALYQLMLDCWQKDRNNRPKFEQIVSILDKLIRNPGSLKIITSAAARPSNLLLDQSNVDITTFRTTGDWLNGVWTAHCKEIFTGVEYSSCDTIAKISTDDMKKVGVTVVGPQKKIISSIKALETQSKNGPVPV
Assay: PamChip tyrosine kinase microarray
Type: biochemical
Conditions: 0.1 µM, HL60 lysate
Method in brief: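 HL60 (AML) cell lysate was spiked with compound at 0.001, 0.01, 0.1, 1, 10 and 50 µM, or 2% v/v DMSO as control, then profiled in technical replicates on a tyrosine kinase peptide array of 196 phosphosites. Kinase activity was inferred from peptide-set changes using an upstream kinase tool.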

COc1ccc(/C=C2\N=C(C)N(c3ccc(CC(=O)NCc4ccccc4)cc3)C2=O)cc1 [Compound 4c, (Z)-N-Benzyl-2-(4-(4-(4-methoxybenzylidene)-2-methyl-5-oxo-4,5-dihydro-1H-imidazol-1-yl)phenyl)acetamide]
Mean Final score (Kinase score): 1.273 | Mean Kinase Statistic: -0.7527 | Mean Significance Score: 1.23 | Mean Specificity Score: 0.04291
